Consider 2 substances from US20100310637A1, “COMPOSITION AND METHOD FOR THE TREATMENT OR PREVENTION OF GLAUCOMA AND OCULAR HYPERTENSION” (priority 2007, published 2010).

The test system of one test is rat eye. The test is described as follows: Reduction in intraocular pressure following topical ocular (corneal) insulin administration, rat. It counts as in vivo. The note with it: repeated small volume applications on upper third of the cornea. As to the method: (§1) Several Insulin preparations were administered to the cornea of rats and rabbits by repeated small volume applications on the upper third of the cornea with necessary measures to minimize conjunctival absorption and drainage to the nasal cavity. Reductions in intraocular pressure ranged from 28% to 36.5% in the rabbit eye and 22% to 29% in the rat eye.

In a further test the test system is rabbit eye. In words: Reduction in intraocular pressure following topical ocular (corneal) insulin administration, rabbit. The class given is in vivo. Conditions: repeated small volume applications on upper third of the cornea. The protocol:
as §1

A further test has as its system filtering bleb. In words: Success rate of filtering bleb after trabeculectomy. Conditions: rabbits after trabeculectomy; daily injections to the filtering bleb. It counts as in vivo, rabbit. As to the method: 15 rabbits underwent trabeculectomy. Five rabbits were treated with daily insulin injections to the filtering bleb, 5 others received denaturized insulin and another 5 rabbits received same volume and same frequency of balanced salt solution. The results of successful blebs at month 4 were 4 out of 5 for the insulin group, and 2 out of 5 and 3 out of 5 for the denaturized insulin and the balanced salt solution respectively.

The next test relates to diabetic patients. The test is described as follows: Systemic insulin and intraocular pressure in humans. The class given is in vivo, human. From the text: Recently there is a growing worldwide trend towards appreciating the merits of insulin in the treatment of diabetic patients. Contrary to the previous practice, patient are encouraged now to switch from oral hypoglycemic treatment to insulin treatment, or even to start therapy with insulin without a period of therapy with the oral hypoglycemic agents. Twelve diabetic patients were scheduled to start insulin therapy. […] None of them had been found with diabetic retinopathy or glaucoma. The drug prescription history was reviewed, and none of the twelve patients was found with systemic therapy that can affect the intraocular pressure measurements. So far, none of them was switched to systemic therapy with drugs that can affect the intraocular pressure. Pachymetry measurements have shown stability, without correlation with the level of intraocular pressure. There was also no correlation between blood glucose levels and the intraocular pressure. The patients were followed at 2 weeks interval in first months and then once every 3 weeks. […] After 2 months reduction in intraocular pressure was higher than 15% from baseline in all cases. At the end of 3 months the reduction in intraocular pressure for all patients ranged from 24% up to 35% from baseline. This level of intraocular pressure reduction was maintained during the follow up until now.

Regarding “denaturized insulin: similar insulin preparation that was denaturized, used as control”, the “reduction in intraocular pressure” value with rat eye and in the test on rabbit eye was “no stastistically significant change” in each case. The “successful blebs at month 4” value in the test with filtering bleb was 2 out of 5.
On to insulin, for which the “intraocular pressure versus baseline” value with diabetic patients (1 month after starting insulin therapy, twelve diabetic patients) is given as “significantly lower than baseline values only in 5 patients”. Also, the “reduction in intraocular pressure from baseline” value with diabetic patients (after 2 months of insulin therapy, all cases) is on record as “higher than 15%”. Moreover, the “successful blebs at month 4” value with filtering bleb is listed as 4 out of 5.
